Read-outs that look alike come from different tables or passages of the source. One block for each molecule: values may come before it. Bridge positions count the residues as written; N and C are the ends. Square brackets hold non-standard residues; d marks the D form. Peptide text beside a SMILES is read from it. * marks the point of attachment. Camptothecin(20S-OCO) = CC[C@@]1(OC(=O)*)C(=O)OCc2c1cc1n(c2=O)Cc2cc3ccccc3nc2-1; FITC = O=C1OC2(c3ccc(O)cc3Oc3cc(O)ccc32)c2ccc(NC(=S)*)cc21; Abu = CC[C@H](N)C(=O)O; GABA = NCCCC(=O)O
Key:
[1] = test system: H1299, DKMG and K562 cells; experiment: Flow cytometry binding of peptide-FITC conjugates; assay type: cell-based; settings: 2.5 μM FITC-labeled peptide
Description: Cells with 80-90% confluence were incubated with 2.5 μM FITC-conjugated peptides in RPMI-5% FBS for 1 h at 37° C. Cells were scrapped from the culture flask and washed twice with 2 ml FCSB.
This concentration was chosen based on preliminary dose dependence study.

[2] = test system: EGFR+ve cells (H1299, DKMG) versus K562 cells; experiment: Flow cytometry internalization of peptide-FITC conjugates; assay type: cell-based; settings: 2.5 μM FITC-labeled peptide
From the text: Analysis was done with FACS cell analyzer.

[3] = test system: H1299 tumor (EGFR positive) versus K562 tumor (EGFR negative); experiment: In vivo targeting in mice with dual H1299 and K562 xenografts; settings: nude mice, tail vein, 100 μg
Description: Animal protocols were approved by the Institutional Animal Care and Use Committee at Ariel university Israel. Nude mice were injected with either H1299 cells in the right flank and with K562 cells in the left flank, so that each mouse bore either dual H1299 and K562 xenografts. When tumors reached, 100 mm^3 mice were injected via tail vein with 100 μg of FITC-labeled cyclic peptide, according to some embodiments of the present invention, and imaged using IVIS® SpectrumCT 8- and 24-hours post injection. Immediately afterwards, the mice were sacrificed for ex vivo imaging of organs.
Signal from the targeted tumor compared to other tissues was determined for each animal.

[4] = Stability of peptide-drug conjugates in complete growth medium (LC-MS); assay type: in vitro ADME; settings: RPMI and DMEM complete growth medium, 37° C., read-out: half-life of degradation
Description: At each time point, 10 μl of sample was taken and mixed with 25 μl ACN/H2O (1:1, v.v.). The samples were centrifuged at 1,400 rpm for 15 min. Supernatants were collected, filtered and analyzed by liquid chromatography mass spectrometry (LC-MS).
The stability of P6-CPT and P9-CPT was measured in RPMI and DMEM complete growth medium at 37° C. for 0 h, 0.5 h, 3 h, 7 h, 24 h, 48, and 72 h. The degradation of the conjugates and the CPT release was analyzed by LC-MS. The stability of these conjugates and drug release rates were similar.

H1299 cells = experiment: XTT cytotoxicity assay on H1299 cells; assay type: cell-based
Description: (§1) Cell growth in the presence of PDCs was measured by a commercial XTT assay kit (Cell Proliferation Kit, XTT based; Biological Industries, Israel). The cells (10^4 cells/well) were seeded in 96 well plates and incubated overnight in complete growth medium. The cells were washed and then cultured in 100 μl of new medium containing various concentrations of drug or peptides, for 24 h, 48 h, and 72 h. The XTT solution was added to each well and the plate was further incubated 2-3 h at 37° C. The optical density in the wells was measured at both 480 nm and 680 nm using a TECAN Infinite M200 ELISA reader. All the tests were done in triplicates, and each experiment was repeated three times.
(§2) The cytotoxicity of the Peptide-Drug conjugates (PDCs) was tested in a range of concentrations (0.5-50 μM) against H1299 and DKMG cells using two protocols. In the first protocol, cells were pre-incubated with P6, P9, P6-CPT, and P9-CPT for 6 hours, the medium was removed, and a fresh, drug-free complete medium was added for additional 24 h (designated as 6h24h) or 48 h (6h48h). In the second protocol, cells were exposed continuously to PDCs for 24 h, 48 h, and 72 hours.

DKMG cells = experiment: XTT cytotoxicity assay on DKMG cells; assay type: cell-based
Description: as §1, §2

[5] = test system: H1299, H1975 and DKMG cells; experiment: Phage display biopanning with NGS, selection of EGFR-specific peptides; assay type: cell-based; settings: 3 rounds of biopanning, K562-derived sequences excluded
Description: A heptapeptide phage display library (Ph.D.-C7C Phage Display Library Kit, New England Biolabs, USA) was used for the in vitro biopanning experiments. All cell lines were individually incubated with phages from the stock library. […] Adherent cells (H1299, […] and DKMG) were plated at a density of 10^5 cells/ml in a 6-well plate. When the culture reached 80% confluence, the first well was incubated with phage library (10^11 pfu/10 μl) for 1 h at 37° C. with gentle stirring. The medium containing unbound phage was collected and transferred to the second, similar well and incubated again. The procedure was repeated with the third well. Cells in the third wells were washed four times with 0.5% Tween-20 in PBS. Then, 0.5 ml of elution buffer (0.2 M glycine-HCl, pH 2.2) was added and incubated for 10 min at 4° C.; the pH was neutralized by addition of 75 μl of 1 M Tris-HCl buffer, pH 9.0. The supernatant containing cell surface binding phage was collected. The cells were then lysed by incubation for 1 h at 4° C. with 2 ml of 30 mM Tris-HCl and 1 mM EDTA, pH 8.0. The medium was collected and centrifuged at 1,500 rpm for 5 min and the supernatant containing cell-internalized phage was transferred to a new tube. The internalized and surface-bound phages were amplified according to the manufacturer's instructions. An aliquot of the phages was retained for sequencing (see below) and the remainder was subjected to two additional rounds of biopanning. […]
Finally, two groups of peptides were constructed; the first included sequences that were present in all three EGFR+ve cell lines and included about 416 sequences; the second was divided into three subgroups, one for each cell line, wherein the subgroup for H1299 included some 1666 sequences, the subgroup for H1975 included some 10437 sequences, the subgroup for DKMG included some 981 sequences. From this list, top eleven S—S bridged cyclic peptides sequences were selected by their count in the sequencing data (the highest number of reads). […]

[6] = biological target: T1, EGFR variant III (EGFRvIII), on DKMG glioblastoma cells (human, UniProt P00533 25-1210); experiment: flow cytometry, 2.5 uM FITC-peptide on DKMG cells (EGFR WT and EGFRvIII)
T1 construct: whole, on cells; DKMG cells express both wild type EGFR (92% of cells) and EGFRvIII (82%); All results on DKMG cells are written against this molecule; also called EGFR mutant; EGFRVIII DKMG

[7] = biological target: T2, epidermal growth factor receptor (EGFR), wild type (human, UniProt P00533 25-1210); experiment: confocal microscopy, 25 uM FITC-peptide, 3 h, H1299 cells
T2 construct: whole, on cells; The target is inferred from tumour cell lines that overexpress EGFR, compared with EGFR-negative cells; No purified receptor was used; also called EGFRWT; EGFR WT

[8] = H1299, 6 w 48 h (6 h pre-incubation, then 48 h drug-free medium)
[9] = H1299, 24 h continuous exposure
[10] = H1299, 48 h continuous exposure
[11] = H1299, first protocol (6 h pre-incubation), up to 48 h
[12] = H1299, second protocol, continuous exposure
[13] = H1299, 72 h continuous exposure

Molecule: C[C@@H]1NC(=O)[C@@H](NC(=O)CCCNC(=S)Nc2ccc3c(c2)C(=O)OC32c3ccc(O)cc3Oc3cc(O)ccc32)CSSC[C@@H](C(N)=O)NC(=O)[C@H](CCCNC(=N)N)NC(=O)CNC(=O)[C@@H]2CCCN2C(=O)[C@H]([C@@H](C)O)NC(=O)[C@H](Cc2ccc(O)cc2)NC(=O)[C@H](CCC(N)=O)NC1=O [FITC-labeled P11] ({FITC-GABA}-CAQYTPGRC-NH2; disulfide 1-9)
- binding (flow cytometry) [1]: bind to H1299 and DKMG selectively but not to K562 cells
- internalization (flow cytometry) [2]: internalized only into to EGFR+ve cells
- accumulation in other organs ([3]; ex vivo imaging of organs): No significant accumulation
- tumor accumulation ([3]; imaging 8 and 24 hours post injection): accumulates in the H1299 tumor compared to the K562 tumor

Molecule: CC[C@H](C)[C@@H]1NC(=O)[C@H](Cc2ccc(O)cc2)NC(=O)[C@H](CO)NC(=O)CNC(=O)[C@@H]2CCCN2C(=O)[C@H](C(C)C)NC(=O)[C@H](Cc2cnc[nH]2)NC(=O)[C@@H](NC(=O)CCCNC(=O)O[C@]2(CC)C(=O)OCc3c2cc2n(c3=O)Cc3cc4ccccc4nc3-2)CSSC[C@@H](C(N)=O)NC1=O [Peptide P6-CPT] ({Camptothecin(20S-OCO)-GABA}-CHVPGSYIC-NH2; disulfide 1-9)
- half-life [4]: 6 to 7 h
- IC50 (H1299 cells; [8]): 32 µM
- IC50 (H1299 cells; [9]): 14.5 µM
- IC50 (H1299 cells; [10]): 5.5 µM
- cytotoxicity (H1299 cells; [11]): exhibited cytotoxic effect after 48 h
- cytotoxicity (H1299 cells; [12]): observed after 24 hours post exposure

Molecule: CC[C@@H]1NC(=O)[C@@H](NC(=O)CCCNC(=O)O[C@]2(CC)C(=O)OCc3c2cc2n(c3=O)Cc3cc4ccccc4nc3-2)CSSC[C@@H](C(N)=O)NC(=O)[C@H](Cc2ccc(O)cc2)NC(=O)[C@H](CO)NC(=O)[C@H](CCC(N)=O)NC(=O)[C@H](CCSC)NC(=O)[C@H](C)NC(=O)[C@H](CC(N)=O)NC1=O [Peptide P9-CPT] ({Camptothecin(20S-OCO)-GABA}-C[Abu]NAMQSYC-NH2; disulfide 1-9)
- half-life [4]: 6 to 7 h
- IC50 (H1299 cells; [8]): 21.5 ± 2.1 µM
- IC50 (H1299 cells; [9]): 8.4 ± 0.5 µM
- IC50 (H1299 cells; [10]): 2.2 ± 0.3 µM
- IC50 (H1299 cells; [13]): 1.2 ± 0.1 µM
- cytotoxicity (H1299 cells; [11]): exhibited cytotoxic effect after 48 h
- cytotoxicity (H1299 cells; [12]): observed after 24 hours post exposure
- IC50 (DKMG cells; 6 w 48 h (6 h pre-incubation, then 48 h drug-free medium)): 32 ± 1.6 µM
- IC50 (DKMG cells; 24 h continuous exposure): 6.76 µM
- IC50 (DKMG cells; 48 h continuous exposure): 2.7 ± 1 µM
- IC50 (DKMG cells; 72 h continuous exposure): 0.2 ± 0.1 µM
- cytotoxic effect (DKMG cells; first protocol): noted after 48 hours
- IC50 concentration higher compared to the free CPT (DKMG cells; first protocol, 48 hours): 4 fold

Molecule: CSCC[C@@H]1NC(=O)[C@H](C)NC(=O)[C@H](CC(N)=O)NC(=O)[C@H](C(C)C)NC(=O)[C@@H](N)CSSC[C@@H](C(N)=O)NC(=O)[C@H](Cc2ccc(O)cc2)NC(=O)[C@H](CO)NC(=O)[C@H](CCC(N)=O)NC1=O [Peptide P9] (H-CVNAMQSYC-NH2; disulfide 1-9)
- Cell line (peptide specificity per cell line; source of the cells from which the peptide was identified) [5]: DKMG
- cytotoxicity (H1299 cells): did not demonstrate cytotoxicity
- IC50 (H1299 cells; [9]): 22.3 ± 0.2 µM
- IC50 (H1299 cells; [10]): 27.3 ± 1.7 µM
- IC50 (H1299 cells; [13]): 22.5 µM
- IC50 (DKMG cells; 24 h continuous exposure): 16.4 ± 1.9 µM
- IC50 (DKMG cells; 48 h continuous exposure): 17.5 ± 2.3 µM
- IC50 (DKMG cells; 72 h continuous exposure): 17.5 ± 1.6 µM

- binding result [6]: binds
- binding result [7]: binds
B1: FITC-labeled cyclic peptide P6, c(CHVPGSYIC) (peptide)
peptide: {FITC-GABA}-CHVPGSYIC-NH2
modifications: disulfide 1-9
SMILES: CC[C@H](C)[C@@H]1NC(=O)[C@H](Cc2ccc(O)cc2)NC(=O)[C@H](CO)NC(=O)CNC(=O)[C@@H]2CCCN2C(=O)[C@H](C(C)C)NC(=O)[C@H](Cc2c[nH]cn2)NC(=O)[C@@H](NC(=O)CCCNC(=S)Nc2ccc3c(c2)C(=O)OC32c3ccc(O)cc3Oc3cc(O)ccc32)CSSC[C@@H](C(N)=O)NC1=O
notes: also called FITC-P6; P6-FITC conjugate

— patent US20250346634A1, “CYCLIC PEPTIDES FOR TARGETING EPIDERMAL GROWTH FACTOR RECEPTOR AND MUTATIONS THEREOF FOR DRUG DELIVERY” (priority 2022, published 2025)
